These results are taken from PMC11011685, “4-(Azolyl)-Benzamidines as a Novel Chemotype for ASIC1a Inhibitors” (International Journal of Molecular Sciences, 2024).

In general, IC50 refers to the concentration that inhibits the measured activity by half. A lower IC50 goes with greater potency in that assay.

Common to all, as to format: cell-based
Test [1] addresses T1, human ASIC1a (hASIC1a) (Homo sapiens, UniProt P78348).
T1 construct: gene ASIC1; native hASIC1a endogenously expressed in HEK 293 cells
T1 sequence (P78348 1-528): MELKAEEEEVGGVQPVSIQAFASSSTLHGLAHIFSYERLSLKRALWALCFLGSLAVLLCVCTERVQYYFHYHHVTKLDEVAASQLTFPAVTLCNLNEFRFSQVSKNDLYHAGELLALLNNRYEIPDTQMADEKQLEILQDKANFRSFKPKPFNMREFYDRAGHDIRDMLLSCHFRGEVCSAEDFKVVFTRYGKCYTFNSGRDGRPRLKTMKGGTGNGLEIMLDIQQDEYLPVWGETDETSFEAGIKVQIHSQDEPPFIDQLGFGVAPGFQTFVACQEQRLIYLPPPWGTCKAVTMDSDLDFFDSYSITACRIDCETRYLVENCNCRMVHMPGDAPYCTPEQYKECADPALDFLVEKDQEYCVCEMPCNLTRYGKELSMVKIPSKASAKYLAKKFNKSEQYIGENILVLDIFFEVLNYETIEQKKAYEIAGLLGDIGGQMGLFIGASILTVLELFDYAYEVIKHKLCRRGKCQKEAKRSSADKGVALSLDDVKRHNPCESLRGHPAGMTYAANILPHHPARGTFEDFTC
As to the kind of experiment: whole-cell patch clamp, residual current I/Io at […] (weak). The settings on record: 100 µM. In general terms: In patch-clamp work, channel activity is measured electrically.

In test [2] the target is T1, human ASIC1a (hASIC1a). As to the kind of experiment: whole-cell patch clamp, pH […] to […] evoked current, dose-response.
Test [3] concerns the target T1, human ASIC1a (hASIC1a). As to the kind of experiment: whole-cell patch clamp, residual current I/Io at […]. The settings on record: 100 µM.
Test [4] has as its target T1, human ASIC1a (hASIC1a). The experiment in a line: whole-cell patch clamp, residual current I/Io at […] (recovery […]). The following applies: 100 µM.

Turning to EN300-2324118, the “I/Io (Mean ± SD), %” value in test [1] amounted to 65 ± 3 % I/Io at 100 µM.

For EN300-256318, in test [1], the “I/Io (Mean ± SD), %” value came out at 76 ± 7 % I/Io at 100 µM.

Turning to EN300-268551, the IC50 in test [2] was 25 ± 2 µM.

Substance EN300-257539 showed an IC50 in test [2] of 3.5 ± 0.5 µM.

As for EN300-257412, the “I/Io (Mean ± SD), %” value in test [3] is recorded as 37 ± 8 % I/Io at 100 µM.

Take EN300-262584: the “I/Io (Mean ± SD), %” value in test [3] was 19 ± 8 % I/Io at 100 µM.

As to EN300-256317, the “I/Io (Mean ± SD), %” value in test [4] is given as 7 ± 2 % I/Io at 100 µM.

In test [2], EN300-264105 returned an IC50 of 6 ± 0.6 µM.
